Experimental data as given in PubChem BioAssay (NCI).
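Protocol summary: plate cells (96-well), add compound at 5 concentrations, incubate 48 h, interpolate endpoints linearly. TGI: total growth inhibition.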

Experiments:
Assay in all cases: NCI-60 cell line screen, 48 h
[1] = tested on: HT29 colon
[2] = tested on: SK-MEL-5 melanoma
[3] = tested on: A549 NSCLC
[4] = tested on: SK-MEL-2 melanoma
[5] = tested on: SF-295 CNS
[6] = tested on: HCT-116 colon
[7] = tested on: A498 renal
[8] = tested on: COLO 205 colon
[9] = tested on: OVCAR-5 ovarian
[10] = tested on: EKVX NSCLC
[11] = tested on: SF-268 CNS
[12] = tested on: OVCAR-4 ovarian
[13] = tested on: CCRF-CEM leukemia
[14] = tested on: MDA-N
[15] = tested on: UO-31 renal
[16] = tested on: SW-620 colon
[17] = tested on: NCI/ADR-RES ovarian
[18] = tested on: UACC-257 melanoma
[19] = tested on: 786-0 renal
[20] = tested on: NCI-H522 lung
[21] = tested on: RPMI-8226 leukemia
[22] = tested on: SNB-19 CNS
[23] = tested on: HOP-92 NSCLC
[24] = tested on: HOP-62 NSCLC
[25] = tested on: SK-OV-3 ovarian
[26] = tested on: KM12 colon
[27] = tested on: OVCAR-8 ovarian
[28] = tested on: SR leukemia
[29] = tested on: SN12C renal
[30] = tested on: HCT-15 colon
[31] = tested on: ACHN renal
[32] = tested on: MOLT-4 leukemia
[33] = tested on: TK-10 renal
[34] = tested on: UACC-62 melanoma
[35] = tested on: SNB-75 CNS
[36] = tested on: NCI-H23 lung
[37] = tested on: BT-549 breast
[38] = tested on: U251 CNS
[39] = tested on: LOX IMVI melanoma
[40] = tested on: NCI-H226 lung
[41] = tested on: HS 578T breast
[42] = tested on: PC-3 prostate
[43] = tested on: IGROV1 ovarian
[44] = tested on: T-47D breast
[45] = tested on: CAKI-1 renal
[46] = tested on: M14 melanoma
[47] = tested on: MDA-MB-435
[48] = tested on: RXF 393 renal
[49] = tested on: OVCAR-3 ovarian
[50] = tested on: MALME-3M melanoma
[51] = tested on: DU-145 prostate
[52] = tested on: SK-MEL-28 melanoma
[53] = tested on: MDA-MB-231 breast
[54] = tested on: MCF7 breast
[55] = tested on: SF-539 CNS
[56] = tested on: NCI-H460 lung
[57] = tested on: HCC-2998 colon
[58] = tested on: K-562 leukemia
[59] = tested on: HL-60(TB) leukemia

## Cc1ccc(N=Nc2c(O)ccc3ccccc23)cc1
[1]
  TGI: > 100 µM
[2]
  TGI: > 100 µM
[3]
  TGI: > 100 µM
[4]
  TGI: > 100 µM
[5]
  TGI: > 100 µM
[6]
  TGI: > 100 µM
[7]
  TGI: > 100 µM
[8]
  TGI: > 100 µM
[9]
  TGI: > 100 µM
[10]
  TGI: > 100 µM
[11]
  TGI: > 100 µM
[12]
  TGI: > 100 µM
[13]
  TGI: 75.8 µM
[14]
  TGI: > 100 µM
[15]
  TGI: > 100 µM
[16]
  TGI: > 100 µM
[17]
  TGI: > 100 µM
[18]
  TGI: > 100 µM
[19]
  TGI: > 100 µM
[20]
  TGI: > 100 µM
[21]
  TGI: > 100 µM
[22]
  TGI: > 100 µM
[23]
  TGI: > 100 µM
[24]
  TGI: > 100 µM
[25]
  TGI: > 100 µM
[26]
  TGI: > 100 µM
[27]
  TGI: > 100 µM
[28]
  TGI: > 100 µM
[29]
  TGI: > 100 µM
[30]
  TGI: > 100 µM
[31]
  TGI: > 100 µM
[32]
  TGI: > 100 µM
[33]
  TGI: > 100 µM
[34]
  TGI: > 100 µM
[35]
  TGI: > 100 µM
[36]
  TGI: > 100 µM
[37]
  TGI: > 100 µM
[38]
  TGI: > 100 µM
[39]
  TGI: > 100 µM
[40]
  TGI: > 100 µM
[41]
  TGI: > 100 µM
[42]
  TGI: > 100 µM
[43]
  TGI: > 100 µM
[44]
  TGI: > 100 µM
[45]
  TGI: > 100 µM
[46]
  TGI: > 100 µM
[47]
  TGI: > 100 µM
[48]
  TGI: > 100 µM
[49]
  TGI: > 100 µM
[50]
  TGI: > 100 µM
[51]
  TGI: > 100 µM
[52]
  TGI: > 100 µM
[53]
  TGI: > 100 µM

## COc1ccc(C(SC2C(O)C(CO)OC2n2ccc(=O)[nH]c2=O)(c2ccccc2)c2ccc(OC)cc2)cc1 (stereo not given)
[1]
  TGI: 35.6 µM
[2]
  TGI: 29 µM
[3]
  TGI: 45.4 µM
[4]
  TGI: 31.4 µM
[54]
  TGI: 43.7 µM
[5]
  TGI: 43.3 µM
[6]
  TGI: 29.2 µM
[8]
  TGI: 34.9 µM
[9]
  TGI: 39.7 µM
[10]
  TGI: 41.8 µM
[11]
  TGI: 40.1 µM
[12]
  TGI: 64.9 µM
[13]
  TGI: > 100 µM
[14]
  TGI: 26.1 µM
[15]
  TGI: 33.4 µM
[16]
  TGI: 63.6 µM
[17]
  TGI: 47.1 µM
[18]
  TGI: 33.5 µM
[19]
  TGI: 32 µM
[20]
  TGI: 31.9 µM
[21]
  TGI: > 100 µM
[22]
  TGI: 41 µM
[23]
  TGI: 29.7 µM
[24]
  TGI: 40.8 µM
[25]
  TGI: 84.7 µM
[26]
  TGI: 39.2 µM
[27]
  TGI: 45.5 µM
[29]
  TGI: 32.4 µM
[30]
  TGI: 33.3 µM
[31]
  TGI: 81.5 µM
[32]
  TGI: > 100 µM
[33]
  TGI: 57 µM
[34]
  TGI: 33.3 µM
[55]
  TGI: 39.2 µM
[35]
  TGI: 48.9 µM
[36]
  TGI: 39.6 µM
[37]
  TGI: 33.6 µM
[38]
  TGI: 30 µM
[56]
  TGI: 26 µM
[57]
  TGI: 30.3 µM
[39]
  TGI: 31.5 µM
[40]
  TGI: 31.9 µM
[41]
  TGI: 53.6 µM
[42]
  TGI: 33 µM
[58]
  TGI: > 100 µM
[59]
  TGI: 68.4 µM
[43]
  TGI: 40.9 µM
[44]
  TGI: 48.7 µM
[45]
  TGI: > 100 µM
[46]
  TGI: 25.8 µM
[47]
  TGI: 22.8 µM
[48]
  TGI: 32.4 µM
[49]
  TGI: 37.1 µM
[50]
  TGI: 36.7 µM
[51]
  TGI: 34.4 µM
[52]
  TGI: 53.9 µM
[53]
  TGI: 31 µM

## NNC(=O)C1(NC(=O)c2ccccc2)C(c2ccccc2)C(c2ccccc2)=NN1c1ccccc1 (stereo not given)
[2]
  TGI: > 100 µM
[3]
  TGI: > 100 µM
[4]
  TGI: > 100 µM
[54]
  TGI: > 100 µM
[5]
  TGI: > 100 µM
[6]
  TGI: > 100 µM
[7]
  TGI: > 100 µM
[8]
  TGI: > 100 µM
[9]
  TGI: > 100 µM
[10]
  TGI: > 100 µM
[11]
  TGI: > 100 µM
[12]
  TGI: > 100 µM
[13]
  TGI: 98.4 µM
[14]
  TGI: 57.9 µM
[15]
  TGI: > 100 µM
[16]
  TGI: > 100 µM
[17]
  TGI: > 100 µM
[18]
  TGI: > 100 µM
[19]
  TGI: > 100 µM
[20]
  TGI: > 100 µM
[21]
  TGI: > 100 µM
[22]
  TGI: > 100 µM
[24]
  TGI: > 100 µM
[25]
  TGI: > 100 µM
[26]
  TGI: > 100 µM
[27]
  TGI: > 100 µM
[28]
  TGI: 65.6 µM
[29]
  TGI: > 100 µM
[30]
  TGI: > 100 µM
[31]
  TGI: > 100 µM
[32]
  TGI: 40.7 µM
[33]
  TGI: > 100 µM
[34]
  TGI: 56.9 µM
[55]
  TGI: > 100 µM
[35]
  TGI: > 100 µM
[36]
  TGI: > 100 µM
[37]
  TGI: > 100 µM
[38]
  TGI: > 100 µM
[56]
  TGI: > 100 µM
[57]
  TGI: > 100 µM
[39]
  TGI: > 100 µM
[40]
  TGI: > 100 µM
[42]
  TGI: > 100 µM
[58]
  TGI: > 100 µM
[43]
  TGI: > 100 µM
[44]
  TGI: > 100 µM
[45]
  TGI: 92 µM
[46]
  TGI: 54.9 µM
[47]
  TGI: > 100 µM
[48]
  TGI: 53.4 µM
[49]
  TGI: > 100 µM
[50]
  TGI: > 100 µM
[51]
  TGI: > 100 µM
[52]
  TGI: > 100 µM
[53]
  TGI: > 100 µM
